Data from EP4768492A1, “CAPPING COMPOUND, AND APPLICATION THEREOF IN MRNA CAPPING” (Jiangsu Synthgene Biotechnology Co., Ltd., priority 2023, dated 2025).

What was measured:
mice = experiment: mRNA translation efficiency in mice: LNP-mRNA by tail vein, luciferase in vivo imaging; settings: 1 µg LNP-mRNA; for protein expression levels in mice: 24 hours after administration, compared to Comparative Example 1; for distribution after tail vein administration: mice, in vivo imaging (FIG. 1)
Description: The tail of each mouse was gently wiped with an alcohol cotton ball, and 1 µg of an LNP-mRNA drug was injected via the tail vein using an insulin syringe. Twenty-four hours after the tail vein administration, the mouse was intraperitoneally injected with 10% chloral hydrate (anesthetized according to the mouse body weight, 50-60 µL/20 g). After the mouse was anesthetized, 150 µL of a prepared luminescent substrate (luminescent substrate concentration: 15 mg/mL, Cat. No. 2109GR001, brand: biofroxx) was intraperitoneally injected. Five minutes after the injection of the luminescent substrate into the mouse, the mouse was placed in a small animal in vivo imaging system. The corresponding luciferase channel was selected to capture an in vivo image of the mouse, and the image was saved. This procedure was repeated at other time points, and the exposure parameters should be kept consistent for comparison.

mRNA [1] = experiment: mRNA in vitro transcription (IVT) yield with cap analog; type: biochemical; settings: mRNA yield of IVT reaction, 37 °C 2 h, purified mRNA quantified by Nanodrop One
Description: (§1) mRNA IVT reactions were performed using the cap analogs from the examples. Firstly, the required volumes of materials for the system were calculated, and then the samples were added (the IVT reaction system is shown in Table 1). Sterile enzyme-free water was added to the system, and then 10× buffer, NTPs, and the cap analog were sequentially added. The mixture was uniformly mixed and then gently centrifuged, followed by the addition of the nuclease inhibitor, the inorganic pyrophosphatase, the T7 RNA polymerase, and the linearized DNA template. The resulting mixture was thoroughly mixed, then gently centrifuged, and incubated at 37 °C. After 2 h, DNase I (1 U) was added, and the mixture was incubated at 37 °C for another 30 min to remove the DNA template. RNA purification was then performed using a magnetic bead purification method. The purified mRNA was dissolved in sterile enzyme-free water, and then quantitative detection was performed using Nanodrop One. Table 1. IVT reaction system

mRNA [2] = experiment: IVT capping rate of mRNA by LC-MS after RNase H cleavage; type: biochemical
Description: as §1
Liquid chromatography-mass spectrometry (LC-MS) was used to detect the IVT capping rates of mRNAs with different starting cap analogs. Firstly, a labeled (usually biotin-labeled) DNA probe matched with the starting base of the transcribed mRNA product was required to be designed, and streptavidin-labeled magnetic beads were washed, and then incubated with the synthesized DNA probe, mRNA, and 10× RNase H reaction buffer with slow mixing at room temperature for 30 min. Subsequently, 20 µL of RNase H (5 U/µL) was added, and the mixture was incubated at 37 °C for 3 h, with uniform mixing every half hour. After the incubation was completed, the magnetic beads were washed, and then 100 µL of 75% methanol heated to 80 °C was added to the washed magnetic beads. The mixture was heated to 80 °C on a heating plate, held for 3 min, and then placed on a magnetic rack. The supernatant was pipetted and dried at room temperature for 45 min to 10 µL by using an evaporation centrifuge. The sample was then resuspended in 50 µL of 100 µM EDTA/1% MeOH for LC-MS analysis to determine the capping of RNA in the transcription reaction. Since capped and uncapped bases have a distinct difference in molecular weight, the capping rates of mRNA transcription processes initiated with different cap analogs can be determined by utilizing this difference in molecular mass.

SMILES	distribution after tail vein administration (mice)	Capping rate (%) (mRNA [2])	protein expression levels in mice (mice)	Yield (µg) in 20 µL system (mRNA [1]) [µg]
CO[C@@H]1[C@H](OP(=O)(O)OC[C@H]2O[C@@H](n3cnc4c(=O)[nH]c(N)nc43)[C@H](O)[C@@H]2O)[C@@H](COP(O)(=S)OP(=O)(O)OP(=O)(O)C2CC2[C@H]2O[C@@H](n3c[n+](C)c4c(=O)[nH]c(N)nc43)[C@H](O)[C@@H]2O)O[C@H]1n1cnc2c(N)ncnc21 (stereo partly shown) [Compound 14]		98.0		102
COC1C(O)C(n2c[n+](C)c3c(=O)[nH]c(N)nc32)OC1C1CC1P(=O)(O)OP(=O)(O)OP(=O)(O)OCC1OC(n2cnc3c(N)ncnc32)C(OC)C1OP(=O)(O)OCC1OC(n2cnc3c(=O)[nH]c(N)nc32)C(O)C1O (stereo not shown) [Compound 2]	mainly distributed in the liver	98.4	higher protein expression levels in mice compared to Comparative Example 1	117
COC1C(OP(=O)(O)OCC2OC(n3cnc4c(=O)[nH]c(N)nc43)C(O)C2O)C(COP(=O)(O)OP(=O)(O)OP(=O)(O)C2CC2C2OC(n3c[n+](C)c4c(=O)[nH]c(N)nc43)C(F)C2O)OC1n1cnc2c(N)ncnc21 (stereo not shown) [Compound 9]		94.5		98
COCC1C(O)C(n2c[n+](C)c3c(=O)[nH]c(N)nc32)OC1C1CC1P(=O)(O)OP(=O)(O)OP(=O)(O)OCC1OC(n2cnc3c(N)ncnc32)C(OC)C1OP(=O)(O)OCC1OC(n2cnc3c(=O)[nH]c(N)nc32)C(O)C1O (stereo not shown) [Compound 5]		96.3		110
COC1C(OP(=O)(O)OCC2OC(n3cnc4c(=O)[nH]c(N)nc43)C(O)C2O)C(COP(=O)(O)OP(=O)(O)OP(=O)(O)C2CC2C2OC(n3c[n+](C)c4c(=O)[nH]c(N)nc43)C(O)C2O)OC1n1cnc2c(N)ncnc21 (stereo not shown) [Compound 1]	mainly distributed in the liver	99.1	higher protein expression levels in mice compared to Comparative Example 1	114
COC1C(OP(=O)(O)OCC2OC(n3cnc4c(=O)[nH]c(N)nc43)C(O)C2O)C(COP(=O)(O)OP(=O)(O)OP(=O)(O)C2CC2C2OC(n3c[n+](C)c4c(=O)[nH]c(N)nc43)C(O)C2CNC(C)=O)OC1n1cnc2c(N)ncnc21 (stereo not shown) [Compound 10]		96.3		103

Second part, led by results:

distribution after tail vein administration (mice)	Capping rate (%) (mRNA [2])	SMILES	protein expression levels in mice (mice)	Yield (µg) in 20 µL system (mRNA [1]) [µg]
mainly distributed in the liver	98.5	CO[C@@H]1[C@H](OP(=O)(O)OC[C@H]2O[C@@H](n3cnc4c(=O)[nH]c(N)nc43)[C@H](O)[C@@H]2O)[C@@H](COP(=O)(O)OP(=O)(O)OP(=O)(O)OC2([C@H]3O[C@@H](n4c[n+](C)c5c(=O)[nH]c(N)nc54)[C@H](O)[C@@H]3O)CC2)O[C@H]1n1cnc2c(N)ncnc21 [Compound 31]	higher protein expression levels in mice compared to Comparative Example 1	112
mainly distributed in the liver	96.1	CO[C@@H]1[C@H](OP(=O)(O)OC[C@H]2O[C@@H](n3cnc4c(=O)[nH]c(N)nc43)[C@H](O)[C@@H]2O)[C@@H](COP(=O)(O)OP(=O)(O)OP(=O)(O)OC[C@H]2O[C@@H](n3c[n+](C)c4c(=O)[nH]c(N)nc43)[C@H](O)[C@@H]2O)O[C@H]1n1cnc2c(N)ncnc21 [Compound 43, reference compound]		105
	96.0	CO[C@@H]1[C@H](OP(=O)(O)C2CC2[C@H]2O[C@@H](n3cnc4c(=O)[nH]c(N)nc43)[C@H](O)[C@@H]2O)[C@@H](COP(=O)(O)OP(=O)(O)OP(=O)(O)OC[C@H]2O[C@@H](n3c[n+](C)c4c(=O)[nH]c(N)nc43)[C@H](O)[C@@H]2O)O[C@H]1n1cnc2c(N)ncnc21 (stereo partly shown) [Compound 22]		115
mainly distributed in the liver	98.9	CO[C@@H]1[C@H](OP(=O)(O)OC[C@H]2O[C@@H](n3cnc4c(=O)[nH]c(N)nc43)[C@H](O)[C@@H]2O)[C@@H](COP(=O)(O)OP(=O)(O)OP(=O)(O)OC2([C@H]3O[C@@H](n4c[n+](C)c5c(=O)[nH]c(N)nc54)[C@H](O)[C@@H]3OC)CC2)O[C@H]1n1cnc2c(N)ncnc21 [Compound 32]	higher protein expression levels in mice compared to Comparative Example 1	116
	97.1	CO[C@@H]1[C@H](OP(=O)(O)OC[C@H]2O[C@@H](n3cnc4c(=O)[nH]c(N)nc43)[C@H](O)[C@@H]2O)[C@@H](C2CC2P(=O)(O)OP(=O)(O)OP(=O)(O)OC[C@H]2O[C@@H](n3c[n+](C)c4c(=O)[nH]c(N)nc43)[C@H](O)[C@@H]2O)O[C@H]1n1cnc2c(N)ncnc21 (stereo partly shown) [Compound 21]		99
